These results are taken from US8927550B2, “Heterocyclic compounds as CCR1 receptor antagonists” (Boehringer Ingelheim International GmbH, priority 2009, dated 2015).

One assay deals with T1, CCR1 (Homo sapiens, UniProt P32246).
T1 construct: host or cells: Non-adherent cells
T1 sequence (P32246 1-355): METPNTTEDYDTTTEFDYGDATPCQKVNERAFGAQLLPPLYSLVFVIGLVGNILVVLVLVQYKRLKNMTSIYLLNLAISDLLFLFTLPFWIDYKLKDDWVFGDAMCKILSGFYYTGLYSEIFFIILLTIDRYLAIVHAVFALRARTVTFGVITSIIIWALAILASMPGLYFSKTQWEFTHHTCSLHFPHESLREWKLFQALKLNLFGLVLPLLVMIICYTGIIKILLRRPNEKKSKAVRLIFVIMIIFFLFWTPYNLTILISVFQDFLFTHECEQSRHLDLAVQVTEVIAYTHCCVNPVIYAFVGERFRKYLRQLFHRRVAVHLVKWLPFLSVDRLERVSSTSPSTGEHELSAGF
Briefly: Calcium flux in CCR1 transfected cells, Method B (Calcium 4 dye, HAMAMATSU FDSS6000), MIP-1alpha at EC80. Format: cell-based. As to conditions: cells stably expressing recombinant CCR1 and G-alpha-16, 30 minutes at 37 C then 30 minutes at room temperature. As for the experimental part: (§1) Compounds are assessed for the ability to block the interaction of CCR1 and MIP-1α in a functional cellular assay measuring calcium flux in CCR1 transfected cells.
Method B: Non-adherent cells purchased from Chemicon Corporation (HTS005C), stably expressing recombinant CCR1 and G-alpha-16 are grown in RPMI 1640 medium (Mediatech 10-080-CM) supplemented with 10% FBS, 0.4 mg/mL Geneticin and penicillin/streptomycin. On the day of the assay, the cells are loaded with Calcium 4 dye (Molecular Devices R7448) with Probenecid (Invitrogen P346400) at 8E5 cells/mL for 1 hour at room temperature. After 1 hour, they are seeded in a 384-well tissue culture-treated plate at a density of 20,000 cells/well. Appropriately diluted test compound is added to the well to achieve a top concentration of 3,000 nM (diluted 4-fold with 10 doses total). The final concentration of DMSO is 1%. The buffer is HBSS (Invitrogen 14025) with 20 mM HEPES at pH 7.4. The cells incubate 30 minutes at 37 C and then 30 minutes at room temperature. The plates are transferred to the HAMAMATSU FDSS6000 where MIP-1alpha in 1% BSA is added at the EC80 final concentration. All plates must be read within 4 hours of the start of dye-loading. Wells+/−MIP-1alpha containing diluted DMSO instead of compound serve as the controls. Data are analyzed using Activity Base software.
Turning to `CC[C@H](NC(=O)c1cccc2c(-c3ccc(F)cc3)ncn12)c1ccc(Br)nc1` [1-(4-Fluorophenyl)-imidazo[1,5-a]pyridine-5-carboxylic acid [(S)-1-(6-bromopyridin-3-yl)-propyl]-amide], the IC50 stood at 96 nM.
Same read-out and setting: the same measure for `CC[C@H](NC(=O)c1cccc2c(-c3ccc(F)cc3)ncn12)c1ccc(S(C)(=O)=O)nc1` [1-(4-Fluorophenyl)-imidazo[1,5-a]pyridine-5-carboxylic acid [(S)-1-(6-methanesulfonyl-pyridin-3-yl)-propyl]-amide]: 19 nM.
On the same count and under the same terms, the result for `CCC[C@H](NC(=O)c1cccn2c(-c3ccc(F)cc3)cnc12)c1ccc(Br)nc1` [3-(4-Fluorophenyl)-imidazo[1,2-a]pyridine-8-carboxylic acid [(S)-1-(6-bromopyridin-3-yl)-butyl]-amide] reads 1100 nM; that for `CC[C@H](NC(=O)c1cccn2c(-c3ccc(F)cc3)cnc12)c1ccc(Br)nc1` [3-(4-Fluorophenyl)-imidazo[1,2-a]pyridine-8-carboxylic acid [(S)-1-(6-bromopyridin-3-yl)-propyl]-amide], 1340 nM.
The same measure, in the same setting: the result for `CS(=O)(=O)c1cc(CNC(=O)c2nccn3c(-c4ccc(F)cc4)ncc23)ccn1` [3-(4-Fluorophenyl)-imidazo[1,5-a]pyrazine-8-carboxylic acid (2-methanesulfonyl-pyridin-4-ylmethyl)-amide] reads 600 nM; that for `CC(C)(NC(=O)c1nccn2c(-c3ccc(F)cc3)ncc12)c1ccnc(Br)c1` [3-(4-Fluorophenyl)-imidazo[1,5-a]pyrazine-8-carboxylic acid [1-(2-bromopyridin-4-yl)-1-methyl-ethyl]-amide], 1100 nM.
Regarding `CS(=O)(=O)c1cc(C2(NC(=O)c3nccn4c(-c5ccc(F)cc5)ncc34)CC2)ccn1` [3-(4-Fluorophenyl)-imidazo[1,5-a]pyrazine-8-carboxylic acid [1-(2-methanesulfonyl-pyridin-4-yl)-cyclopropyl]-amide], the concentration for half-maximal inhibition (IC50) turned out to be 410 nM.
Still for that read-out and setting: the same measure for `CCC[C@H](NC(=O)c1nccn2c(-c3ccc(F)cc3)ncc12)c1ccnc(S(C)(=O)=O)c1` [3-(4-Fluorophenyl)-imidazo[1,5-a]pyrazine-8-carboxylic acid [(S)-1-(2-methanesulfonyl-pyridin-4-yl)-butyl]-amide]: 5 nM; for `CC[C@H](NC(=O)c1nccn2c(-c3ccc(F)cc3)ncc12)c1ccnc(S(C)(=O)=O)c1` [3-(4-Fluorophenyl)-imidazo[1,5-a]pyrazine-8-carboxylic acid [(S)-1-(2-methanesulfonyl-pyridin-4-yl)-propyl]-amide]: 30 nM; for `CCC[C@H](NC(=O)c1nccn2c(-c3ccc(F)cc3)ncc12)c1cncc(S(C)(=O)=O)c1` [3-(4-Fluorophenyl)-imidazo[1,5-a]pyrazine-8-carboxylic acid [(S)-1-(5-methanesulfonyl-pyridin-3-yl)-butyl]-amide]: 6 nM.
The same measure, in the same setting: the same measure for `CC[C@H](NC(=O)c1cccn2c(-c3ccc(F)cc3)ncc12)c1ccnc(S(C)(=O)=O)c1` [3-(4-Fluorophenyl)-imidazo[1,5-a]pyridine-8-carboxylic acid [(S)-1-(2-methanesulfonyl-pyridin-4-yl)-propyl]-amide]: 2 nM.
On the same count and under the same terms, the result for `CC[C@H](NC(=O)c1cccn2c(-c3ccc(F)cc3)ncc12)c1ccc(Br)nc1` [3-(4-Fluorophenyl)-imidazo[1,5-a]pyridine-8-carboxylic acid [(S)-1-(6-bromopyridin-3-yl)-propyl]-amide] reads 29 nM.
As for `CC[C@H](NC(=O)c1cccn2c(-c3ccc(F)cc3)ncc12)c1ccc(S(C)(=O)=O)nc1` [3-(4-Fluorophenyl)-imidazo[1,5-a]pyridine-8-carboxylic acid [(S)-1-(6-methanesulfonyl-pyridin-3-yl)-propyl]-amide], the concentration for half-maximal inhibition (IC50) was 17 nM.
Take `CS(=O)(=O)c1cccc(CNC(=O)c2cc(C#N)cc3c2ccn3-c2ccc(F)cc2)c1` [6-Cyano-1-(4-fluorophenyl)-1H-indole-4-carboxylic acid 3-methanesulfonyl-benzylamide]: the IC50 amounted to 2 nM.
The same measure, in the same setting: the result for `CN1CCC(NS(=O)(=O)c2ccc(CNC(=O)c3cc(C#N)cc4c3ccn4-c3ccc(F)cc3)cc2)CC1` [6-Cyano-1-(4-fluorophenyl)-1H-indole-4-carboxylic acid 4-(1-methyl-piperidin-4-ylsulfamoyl)-benzylamide] reads 18 nM; that for `CS(=O)(=O)c1ccc(CNC(=O)c2cc(C#N)cc3c2ccn3-c2ccc(F)cc2)cn1` [6-Cyano-1-(4-fluorophenyl)-1H-indole-4-carboxylic acid (6-methanesulfonyl-pyridin-3-ylmethyl)-amide], 4 nM.
Same read-out and setting: the same measure for `CS(=O)(=O)Nc1ccc(CNC(=O)c2cc(C#N)cc3c2ccn3-c2ccc(F)cc2)cn1` [6-Cyano-1-(4-fluorophenyl)-1H-indole-4-carboxylic acid (6-methanesulfonylamino-pyridin-3-ylmethyl)-amide]: 4 nM.
Turning to `CS(=O)(=O)c1cc(C2(NC(=O)c3cc(C#N)cc4c3ccn4-c3ccc(F)cc3)CC2)ccn1` [6-Cyano-1-(4-fluorophenyl)-1H-indole-4-carboxylic acid [1-(2-methanesulfonyl-pyridin-4-yl)-cyclopropyl]-amide], the IC50 amounted to 0.8 nM.

The next assay has as its target T1, CCR1. Briefly: Calcium flux in CCR1 transfected cells, Method A (Fluo-4 NW dye, FLIPR TETRA), MIP-1 alpha at EC80. Format: cell-based. As to conditions: cells stably expressing recombinant CCR1 and G-alpha-16, 1 hour at room temperature. As for the experimental part:
as §1
Method A: Non-adherent cells purchased from Chemicon Corporation (HTS005C), stably expressing recombinant CCR1 and G-alpha-16 are grown in RPMI 1640 medium (Mediatech 10-080-CM) supplemented with 10% heat-inactivated FBS, 0.4 mg/mL Geneticin and penicillin/streptomycin. On the day of the assay, the cells are transferred to a beaker and dye-loaded in bulk using a Fluo-4 NW Calcium Assay Kit with probenecid (Invitrogen F36205) at 0.8E6 cells/mL for 1 hour at room temperature. After 1 hour, they are seeded in a 384-well tissue culture-treated plate at a density of 20,000 cells/well. Appropriately diluted test compound is added to the well to achieve a top concentration of 3,000 nM (diluted 4-fold with 10 doses total). The final concentration of DMSO is 1%. The buffer is HBSS (Invitrogen 14025) with 20 mM HEPES at pH 7.4. The cells are allowed to incubate 1 hour in the dark at room temperature. The plates are transferred to the FLIPR TETRA where MIP-1 alpha in 1% BSA is added at the EC80 final concentration. Wells+/−MIP-1 alpha containing diluted DMSO instead of compound serve as the controls. Intracellular calcium flux is recorded on the FLIPR TETRA, using excitation at 470/495 nm and emission at 515/575 nm. Data are analyzed using Activity Base software.
In the case of `O=C(NCc1cccc(C(F)(F)F)c1)c1cccn2c(-c3ccc(Cl)c(Cl)c3)ncc12` [3-(3,4-Dichlorophenyl)-imidazo[1,5-a]pyridine-8-carboxylic acid 3-trifluoromethyl-benzylamide], the IC50 was 810 nM.
Still for that read-out and setting: the same measure for `CS(=O)(=O)c1cccc(CNC(=O)c2cccn3c(-c4ccc(F)cc4)ncc23)c1` [3-(4-Fluorophenyl)-imidazo[1,5-a]pyridine-8-carboxylic acid 3-methanesulfonyl-benzylamide]: 305 nM; for `O=C(NCc1cccc(C(F)(F)F)c1)c1cccn2c(-c3ccc(F)cc3)ncc12` [3-(4-Fluorophenyl)-imidazo[1,5-a]pyridine-8-carboxylic acid 3-trifluoromethyl-benzylamide]: 18 nM; for `O=C(NCc1ccnc(Br)c1)c1cccn2c(-c3ccc(F)cc3)ncc12` [3-(4-Fluorophenyl)-imidazo[1,5-a]pyridine-8-carboxylic acid (2-bromopyridin-4-ylmethyl)-amide]: 11 nM.
Same read-out and setting: the result for `CS(=O)(=O)c1cc(CNC(=O)c2cccn3c(-c4ccc(F)cc4)ncc23)ccn1` [3-(4-Fluorophenyl)-imidazo[1,5-a]pyridine-8-carboxylic acid (2-methanesulfonyl-pyridin-4-ylmethyl)-amide] reads 285 nM; that for `O=C(NCc1ccc(Br)nc1)c1cccn2c(-c3ccc(F)cc3)ncc12` [3-(4-Fluorophenyl)-imidazo[1,5-a]pyridine-8-carboxylic acid (6-bromopyridin-3-ylmethyl)-amide], 428 nM; that for `CS(=O)(=O)c1ccc(CNC(=O)c2cccn3c(-c4ccc(F)cc4)ncc23)cn1` [3-(4-Fluorophenyl)-imidazo[1,5-a]pyridine-8-carboxylic acid (6-methanesulfonyl-pyridin-3-ylmethyl)-amide], 568 nM.
Still for that read-out and setting: the same measure for `CCCC(NC(=O)c1cccn2c(-c3ccc(F)cc3)ncc12)c1ccc(S(C)(=O)=O)nc1` (centres unmarked) [3-(4-Fluorophenyl)-imidazo[1,5-a]pyridine-8-carboxylic acid [1-(6-methanesulfonyl-pyridin-3-yl)-butyl]-amide]: 7 nM.
